# Assay results published in the supplement of paper PMC10307832.
# Tests used:
# Experiment in all cases: relative viability (nuclei count vs DMSO), 5 days (fraction); higher = more cells survive
# [1] = compound: CC1CC(=O)N(C2=CN=C(N=C2N1C3CCCC3)NC4=C(C=C(C=C4)C(=O)NC5CCN(CC5)C)OC)C [NPK76-II-72-1] + CC(=O)c1c(C)c2cnc(Nc3ccc(N4CCNCC4)cn3)nc2n(C2CCCC2)c1=O [Palbociclib] (partner 0.5 µM)
# In short: (§1)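 A single step with final 0.05% Triton X-100, 1% formaldehyde and 1 ug/ml Hoechst fixed the cells and stained nuclei 5 days after treatment. Lung cancer cell lines in 1536-well plates had been treated by pin tool the day after seeding with one drug alone or a fixed anchor-drug dose plus five library-drug doses (not always all listed) in √10 steps, and nuclei were counted on 4× images. Relative viability is the ratio of nuclei in treated wells to nuclei in vehicle wells, taken as the median of duplicate plates.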
# [2] = compound: CC1CC(=O)N(C2=CN=C(N=C2N1C3CCCC3)NC4=C(C=C(C=C4)C(=O)NC5CCN(CC5)C)OC)C [NPK76-II-72-1] + CC1(C)CCC(c2ccc(Cl)cc2)=C(CN2CCN(c3ccc(C(=O)NS(=O)(=O)c4ccc(N[C@H](CCN5CCOCC5)CSc5ccccc5)c(S(=O)(=O)C(F)(F)F)c4)cc3)CC2)C1 [Navitoclax] (partner 0.5 µM)
# In short: as §1
# BI-2536 + Crizotinib = compound: CC[C@@H]1C(=O)N(C)c2cnc(Nc3ccc(C(=O)NC4CCN(C)CC4)cc3OC)nc2N1C1CCCC1 [BI-2536] + C[C@@H](Oc1cc(-c2cnn(C3CCNCC3)c2)cnc1N)c1c(Cl)ccc(F)c1Cl [Crizotinib] (partner 1 µM)
# In short: as §1
# BI-2536 + Linsitinib = compound: CC[C@@H]1C(=O)N(C)c2cnc(Nc3ccc(C(=O)NC4CCN(C)CC4)cc3OC)nc2N1C1CCCC1 [BI-2536] + C[C@]1(O)C[C@@H](c2nc(-c3ccc4ccc(-c5ccccc5)nc4c3)c3c(N)nccn32)C1 [Linsitinib] (partner 1 µM)
# In short: as §1
Cell Line,relative viability ([1]; first compound 0.01 µM),relative viability ([1]; first compound 0.03162 µM),relative viability ([1]; first compound 0.1 µM),relative viability ([1]; first compound 0.3162 µM),relative viability ([1]; first compound 1 µM),relative viability ([2]; first compound 0.01 µM),relative viability ([2]; first compound 0.03162 µM),relative viability ([2]; first compound 0.1 µM),relative viability ([2]; first compound 0.3162 µM),relative viability ([2]; first compound 1 µM),relative viability (BI-2536 + Crizotinib; first compound 0.01 µM),relative viability (BI-2536 + Crizotinib; first compound 0.03162 µM),relative viability (BI-2536 + Crizotinib; first compound 0.1 µM),relative viability (BI-2536 + Crizotinib; first compound 0.3162 µM),relative viability (BI-2536 + Crizotinib; first compound 1 µM),relative viability (BI-2536 + Linsitinib; first compound 0.01 µM),relative viability (BI-2536 + Linsitinib; first compound 0.03162 µM),relative viability (BI-2536 + Linsitinib; first compound 0.1 µM),relative viability (BI-2536 + Linsitinib; first compound 0.3162 µM),relative viability (BI-2536 + Linsitinib; first compound 1 µM)
HCC-44,0.982,1.08,0.993,0.935,1.01,0.997,0.969,0.915,0.919,1.11,0.786,0.703,0.444,0.139,0.0857,0.672,0.72,0.602,0.12,0.0939
HCC-78,0.423,0.44,0.425,0.385,0.502,,0.846,0.719,,0.732,0.368,0.288,0.347,0.18,0.159,0.613,0.481,0.511,0.52,0.207
HCC-366,0.386,0.438,0.386,0.363,0.458,1.09,1.11,1.07,1.13,0.978,0.528,0.49,0.369,0.0121,0.0124,0.648,0.739,0.535,0.0173,0.0162
HCC-827,0.474,0.457,0.488,0.491,0.561,1.01,1.06,0.978,0.993,1.12,0.926,0.968,0.714,0.328,0.305,1.08,1.01,0.947,0.796,0.268
HOP-62,0.397,0.458,0.462,0.438,0.511,0.973,1.12,0.947,1.06,0.954,0.986,0.949,0.78,0.134,0.12,0.89,1,0.914,0.135,0.142
LC-2-ad,0.491,0.508,0.537,0.498,0.475,0.469,0.501,0.599,0.395,0.541,0.41,0.272,0.205,0.217,0.286,0.891,0.85,0.382,0.15,0.143
LCLC-97TM1,0.196,0.215,0.209,0.211,0.203,,0.392,0.52,0.439,0.488,0.249,0.303,0.2,0.168,0.105,0.157,0.239,0.168,0.143,0.113
LK-2,0.624,0.636,0.668,0.653,0.565,0.769,0.83,0.961,0.723,0.879,0.245,0.237,0.202,0.177,0.245,0.528,0.504,0.506,0.12,0.144
